Here are results for 4 compounds from patent US3956487A, “Novel antifungal antibiotic substance, and agricultural and horticultural fungicidal composition containing said substance” (Nihon Tokushu Noyaku Seizo Kabushiki Kaisha, priority 1974, dated 1976).

For data set [1], the system named is Vibrio comma 904. As to the kind of experiment: MIC, agar dilution method. The format is cell-based. Background: Agar dilution tests growth on a series of plates holding different concentrations.
For data set [2], the system named is Xanthomonas citri. As to the kind of experiment: MIC, agar dilution method. It counts as cell-based.
In data set [3] the test system is Brown rot (Sclerotinia cineria). As to the kind of experiment: Field test on brown rot of peach. The format is in vivo. Particulars: for Morbidity after 7 days since packaging: room temperature storage. An excerpt:
Test on Brown rot (Sclerotinia cineria) of peach (field test):
Both the morbidity upon harvest and morbidity of the fruit packed in a cardboard box for storage at room temperature were investigated.

Data set [4] relates to Staphylococcus aureus FDA 209 p.
The subject of data set [5] is Sarcina lutea PCI 1001.
Data set [6] deals with Bacillus subtilis PCI 219.
In data set [7] the test system is Mycobacterium ATCC 607.
Data set [8] deals with Escherichia coli NIHJ.
For data set [9], the system named is Candida albicans.
Data set [10] has as its system Saccharomyces cerevisiae.
Data set [11] deals with Holmodendrum pedrosei.
Data set [12] has as its system Trichophyton rubrum.
The test system of data set [13] is Ophiobolus miyabianus.
In data set [14] the test system is Aspergillus niger.
For data set [15], the system named is Xanthomonas oryzae.
Data set [16] deals with Alternaria japonica.
The subject of data set [17] is Alternaria kikuchiana.
The subject of data set [18] is Sclerotinia cinerea. To be noted: 72 hours.
The test system of data set [19] is Sclerotinia sclerotiorum.
In data set [20] the test system is Botorytis fabae.
Data set [21] has as its system Botorytis cinerea. Particulars: 48 hours.
Data set [22] concerns Sclerotinia cinerea. Particulars: 200 mcg/ml solution, 2 days at 27°C.
For data set [23], the system named is Mice. To be noted: for LD50: mice; for No abnormality (dose): mouse, in vivo.
Data set [24] relates to Young carp.
Assay in data set [25]: not given
This is another data set of the same source.

Data set [26] relates to Sclerotinia rot fungus. Particulars: curative, 48 hours.
In data set [27] the test system is crops. To be noted: ordinary dosages.
Data set [28] has as its system various bacteria.
Data set [29] deals with Gray mold fungus. As to the kind of experiment: Curative test on gray mold of bean leaves. To be noted: 48 hours.
Data set [30] relates to Gray mold fungus. Briefly: Preventive test on gray mold of bean leaves.
In data set [31] the test system is Sclerotinia rot fungus. As to the kind of experiment: Preventive test on sclerotinia rot of bean leaves.
Setting [32] is: 50 ppm, sprayed twice, 7-day interval.

The structures appear in SMILES notation. ≈ marks a conversion by molar mass, not a printed value. Read-outs that look alike come from different tables or passages of the source. A value given as a limit tells only on which side of the number the result lay.

What is called LD50 is the dose at which mortality reaches 50%. The low end stands for a more toxic substance, the high end for a less toxic substance. Regarding `CC(N)C(=O)NC1COC(O)C(N)C1O` (stereo not shown), the “minimum inhibitory concentration (MIC)” value in data set [1] (24 hours) is 12.5 µg/mL (≈ 57 µM); in data set [1] (48 hours), 100 µg/mL (≈ 456 µM); in [2] (48 hours) it was above 100 µg/mL; in data set [2] (72 hours) it was above 100 µg/mL; in [4] (24 hours), above 100 µg/mL; in data set [4] (48 hours) it was above 100 µg/mL. Also, the “minimum inhibitory concentration (MIC)” value in data set [5] (24 hours) was 3.12 µg/mL (≈ 14.2 µM); in data set [5] (48 hours) it was 3.12 µg/mL (≈ 14.2 µM); in [6] (24 hours), above 100 µg/mL; in data set [6] (48 hours) it was above 100 µg/mL; in data set [7] (24 hours), above 100 µg/mL; in data set [7] (48 hours), above 100 µg/mL. The “minimum inhibitory concentration (MIC)” value in data set [8] (24 hours) is 100 µg/mL (≈ 456 µM); in data set [8] (48 hours), above 100 µg/mL; in [9] (48 hours), above 100 µg/mL; in data set [9] (72 hours), above 100 µg/mL; in data set [10] (48 hours), above 100 µg/mL; in data set [10] (72 hours), above 100 µg/mL. The “minimum inhibitory concentration (MIC)” value in data set [11] (48 hours) was 25 µg/mL (≈ 114 µM); in [11] (72 hours), 25 µg/mL (≈ 114 µM); in [12] (48 hours) it was 100 µg/mL (≈ 456 µM); in data set [12] (72 hours), above 100 µg/mL; in data set [13] (48 hours), 25 µg/mL (≈ 114 µM); in data set [13] (72 hours) it was 25 µg/mL (≈ 114 µM). The “minimum inhibitory concentration (MIC)” value in data set [14] (48 hours) was above 100 µg/mL; in data set [14] (72 hours) it was above 100 µg/mL; in data set [15] (48 hours), 50 µg/mL (≈ 228 µM); in data set [15] (72 hours), 100 µg/mL (≈ 456 µM); in data set [16] (48 hours), 50 µg/mL (≈ 228 µM); in data set [16] (72 hours), 50 µg/mL (≈ 228 µM). The “minimum inhibitory concentration (MIC)” value in data set [17] (48 hours) was above 100 µg/mL; in [17] (72 hours) it was above 100 µg/mL; in [18], 25 µg/mL (≈ 114 µM); in [19] (48 hours), 1.56 µg/mL (≈ 7.12 µM); in data set [19] (72 hours) it was 3.12 µg/mL (≈ 14.2 µM); in [20] (48 hours) it was 6.25 µg/mL (≈ 28.5 µM). The “minimum inhibitory concentration (MIC)” value in data set [20] (72 hours) came to 25 µg/mL (≈ 114 µM); in [21], 6.25 µg/mL (≈ 28.5 µM). Further, in data set [3] (setting [32]), the Morbidity upon harvest stood at 0. Further, the “Morbidity after 7 days since packaging” value in [3] (setting [32]) stood at 0. Further, the inhibition zone diameter entry in data set [22] is “about 35 mm”. For the same compound, the values for the LD50 in [23] (intravenous injection) and in data set [23] (oral administration) were 160 mg/kg and 750 mg/kg, respectively. Moreover, the “No abnormality (dose)” value in data set [23] (iv) is recorded as 125 mg/kg; in data set [23] (po), 500 mg/kg. For the same compound, the “no trouble (concentration)” value in [24] stood at 250 ppm. Further, the “Solubility in dimethyl sulfoxide” value (dimethyl sulfoxide) is reported as “Soluble”. For the same compound, the Solubility in ethanol entry (ethanol) was “sparingly soluble”. The Solubility in methanol result (methanol) is reported as “Soluble”. For the same compound, the stability on standing entry in data set [25] (allowed to stand for a long time) was “activity became lower and it coloured in yellow”. In addition, the results for the retention of activity result in data set [25] (in an acidic solution) and in [25] (solution neutral to alkaline) were “retains its activity” and “activity is reduced”, respectively. For the same compound, the stability result in data set [25] (in the form of aqueous solution) is given as “very stable”. In addition, the “Diameter of the disease spot after spraying” value is on record as 19.6 mm in data set [26] (50 ppm); 16.3 mm in data set [26] (100 ppm); 19.3 mm in data set [29] (25 ppm); 17.0 mm in data set [29] (50 ppm); 16.3 mm in [29] (100 ppm). Moreover, the “Disease spot inhibiting rate” value in data set [26] (50 ppm) is reported as 62%; in [26] (100 ppm), 76%; in [29] (25 ppm) it was 59%; in data set [29] (50 ppm) it was 75%; in data set [29] (100 ppm) it was 81%. In addition, the phytotoxicity to crops result in data set [27] is “does not give phytotoxicity to crops”. For the same compound, in data set [28], the antibacterial action entry is reported as “only weak antibacterial action”.
`CC(N)C(=O)NC1COC(O)C(N)C1O.Cl` (stereo not shown): the “Diameter of disease spot” value in [30] (25 ppm) was found to be 23 mm; in data set [30] (50 ppm), 10 mm; in data set [31] (25 ppm), 10 mm; in data set [31] (50 ppm) it was 0 mm. Also, the “Disease spot inhibiting rate” value stood at 23% in data set [30] (25 ppm), 67% in data set [30] (50 ppm), 71% in data set [31] (25 ppm) and 100% in [31] (50 ppm).
Consider `CCCCNC(=O)n1c(NC(=O)OC)nc2ccccc21` [BENLATE, methyl-1-(butylcarbamoyl)-2-benzimidazole carbamate], for which, in data set [3] (50% product × 1000), the Morbidity upon harvest came to 0.3 and the “Morbidity after 7 days since packaging” value is recorded as 46.1.
For `CC1(C)OC(=O)N(c2cc(Cl)cc(Cl)c2)C1=O` [Sclex, 3-(3,5-dichlorophenyl)-5,5-dimethyloxazolidinedione-2,4], in data set [3] (20% product × 1500), the Morbidity upon harvest is reported as 0.03 and the “Morbidity after 7 days since packaging” value is 7.7. In [29] (20% product × 1000 (200 ppm)), the “Diameter of the disease spot after spraying” value came to 17.7 mm and the “Disease spot inhibiting rate” value worked out at 61%.
